The test system of data set [1] is granzyme B. As to the kind of experiment: Granzyme B protein by immunoblot in siRNA-transduced NK cells. Format: cell-based, human. The note with it: without or with IL-15 (10 ng/ml) 24 h. On the procedure:
FIGS. 3A-3E depict the results of a study showing that downregulation of Cbl-b enhances the cytotoxicity of primary human NK cells. (FIGS. 3A and 3B) Primary human NK cells transduced with Cbl-b siRNA or Scr siRNA for 24 h were stimulated without (FIG. 3A) or with (FIG. 3B) a low concentration of IL-15 (2 ng/ml) for 16 h, then co-cultured with ^51Cr labeled Molm-13, MV4-11 or EOL-1 leukemia cell lines for 4 h, followed by quantification of specific tumor cell lysis. Each experiment was repeated with 6 different normal donors. (FIG. 3C) qRT-PCR was performed to quantify the granzyme B (GZMB) mRNA levels (n=8 donors) in siRNA- and Scr siRNA-transduced primary human NK cells incubated without or with IL-15 (10 ng/ml) for 16 h. (FIG. 3D) The concentration of the granzyme B protein in the supernatants of Cbl-b siRNA- and Scr siRNA-transduced primary human NK cells incubated without (688.1 pg/ml vs 525.4 pg/ml; P=0.0232) or with IL-15 (10 ng/ml) for 24 h (8789 pg/ml vs 3397 pg/ml; P=0.0232) was measured by ELISA (n=8 donors). (FIG. 3E) The level of granzyme B protein in Cbl-b siRNA- and Scr siRNA-transduced primary human NK cells incubated without or with IL-15 (10 ng/ml) for 24 h was measured by immunoblot analysis. […]
Immunoblotting. […] Densitometric analysis was performed to quantify intensity of gel bands with Image J (National Institutes of Health). […]
(Immunoblotting shows a protein as a band on a membrane.)

For data set [2], the system named is IFN-γ. As to the kind of experiment: Intracellular IFN-γ flow cytometry of siRNA-transduced NK cells. Format: cell-based, human. On the procedure: (§1) FIGS. 4A-4D depict the results of a study showing that downregulation of Cbl-b increases IFN-γ secretion in IL-15-activated primary human NK cells. (FIG. 4A) RNAseq was conducted using primary human NK cells transduced with either Cbl-b siRNA or Scr siRNA without or with incubation in IL-15 (10 ng/ml) for 16 h (4 donors for each group). […] (FIG. 4B) qRT-PCR was performed to quantify the mRNA levels of IFN-γ (n=6 donors) after IL-15 (10 ng/ml) 6 h stimulation. (FIG. 4C) The percentage of intracellular IFN-γ+ cells in un-transduced NK cells or those transduced with Cbl-b siRNA or Scr siRNA, each activated with IL-15 (10 ng/ml) for 24 h (11.5% vs 4.338%; P=0.0008; n=5 donors). (FIG. 4D) Supernatants were collected after IL-15 (10 ng/ml) for 24 h and IFN-γ concentrations measured by ELISA (18115 pg/ml vs 882.5 pg/ml; P=0.0099; n=7 donors). Scr-scrambled; *P<0.05, **P<0.01, ***P<0.001 by Student's two-tailed paired t-test or One-way ANOVA; ns, not significant. Data presented as mean±SEM.
FIGS. 9B-9D show intracellular flow cytometric analysis of CD56+ primary human NK cells transduced with Scr siRNA or transduced with Cbl-b siRNA, incubated with IL-18 (10 ng/ml), IL-12 (10 ng/ml) or IL-18 (10 ng/ml) plus IL-12 (10 ng/ml) for 24 h. Scr, scrambled; *P<0.05, ns, not significant. Data are presented as mean±SEM.
Flow cytometry. To determine protein cell surface expression via flow cytometry, cells were stained with monoclonal antibodies at room temperature for 20 minutes and washed with FACS buffer prior to analysis using a Fortessa X-20 flow cytometer (BD Biosciences). For IFN-γ intracellular flow cytometric analysis, […] GolgiPlug (BD Biosciences) was added for 4 h before cell harvest; cells were then permeabilized and fixed using a Cytofix/Cytoperm Fixation/Permeabilization Solution Kit (BD Biosciences), followed by analysis with a Fortessa X-20 flow cytometer. Intracellular flow cytometric analysis of Mertk was performed similarly except that GolgiPlug was not added. Data was analyzed by using Flowjo V10 software (Tree Star, Ashland, OR, USA).
To further explore how Cbl-b regulates the functions of primary human NK cells, we performed RNA-seq analyses using enriched primary NK cells from healthy donors transduced with Cbl-b siRNA or Scr siRNA without or with IL-15 treatment for 16 h (n=4 in each group). […] The intracellular results were supported by assessment IFN-γ secretion into the supernatant, in that IL-15-activated primary human NK cells transduced with Cbl-b siRNA expressed 10-fold higher levels of IFN-γ compared to NK cells transduced with Scr siRNA (FIG. 4D).
A general note: In flow cytometry, cells or beads pass a laser one at a time.

For data set [3], the system named is granzyme B. As to the kind of experiment: RNA-seq of siRNA-transduced primary human NK cells. The settings on record: without or with IL-15 (10 ng/ml) 16 h, vs Scr siRNA. Format: cell-based. On the procedure: as §1
To further explore how Cbl-b regulates the functions of primary human NK cells, we performed RNA-seq analyses using enriched primary NK cells from healthy donors transduced with Cbl-b siRNA or Scr siRNA without or with IL-15 treatment for 16 h (n=4 in each group). […]

Data set [4] relates to granzyme B. Briefly: Granzyme B protein in supernatants by ELISA. Format: cell-based, human. On the procedure: FIGS. 3A-3E depict the results of a study showing that downregulation of Cbl-b enhances the cytotoxicity of primary human NK cells. (FIGS. 3A and 3B) Primary human NK cells transduced with Cbl-b siRNA or Scr siRNA for 24 h were stimulated without (FIG. 3A) or with (FIG. 3B) a low concentration of IL-15 (2 ng/ml) for 16 h, then co-cultured with ^51Cr labeled Molm-13, MV4-11 or EOL-1 leukemia cell lines for 4 h, followed by quantification of specific tumor cell lysis. Each experiment was repeated with 6 different normal donors. (FIG. 3C) qRT-PCR was performed to quantify the granzyme B (GZMB) mRNA levels (n=8 donors) in siRNA- and Scr siRNA-transduced primary human NK cells incubated without or with IL-15 (10 ng/ml) for 16 h. (FIG. 3D) The concentration of the granzyme B protein in the supernatants of Cbl-b siRNA- and Scr siRNA-transduced primary human NK cells incubated without (688.1 pg/ml vs 525.4 pg/ml; P=0.0232) or with IL-15 (10 ng/ml) for 24 h (8789 pg/ml vs 3397 pg/ml; P=0.0232) was measured by ELISA (n=8 donors). (FIG. 3E) The level of granzyme B protein in Cbl-b siRNA- and Scr siRNA-transduced primary human NK cells incubated without or with IL-15 (10 ng/ml) for 24 h was measured by immunoblot analysis. The data are representative of three experiments. Scr-scrambled; *P<0.05, **P<0.01, ***P<0.001, ****P<0.0001 by One-way or Two-way ANOVA; ns, not significant. Data presented as mean±SEM.
ELISA. Primary NK cells were plated in an equivalent number of 100,000 cells/well in a 96-well plate in RPMI and supplemented with 10% FBS. Cells were treated with recombinant human IL-15 (10 ng/ml) for 24 h, and cell-free culture supernatant was collected and frozen at −80° C. for later use. IFN-γ concentration was measured by ELISA using anti-IFN-γ antibody from Thermo Fisher Scientific. Granzyme B concentration was measured by ELISA kit purchased from R&D.
Both groups were next incubated without or with IL-15 and co-cultured with ^51Cr labeled MV4-11, Molm-13, or EOL-1 leukemia cell lines, followed by assessment of specific lysis measured after 4 h of co-culture.
On the technique in general: In an ELISA, binding on a coated surface is turned into a signal by an enzyme label.

As for “Cbl-b siRNA: Cbl-b-specific Accell siRNA (Dharmacon), SEQ ID NO:1, CCUUCAUGUUCAGAUGGUU (Accell modified siRNA, pattern not given here)”, in data set [1], the “total GZMB protein” value is on record as “increase of total GZMB protein”. For the same substance, the “percentage of IFN-γ+ fraction relative to Scr siRNA” value is “no significant difference” in data set [2] (IL-12 (10 ng/ml) or IL-12 plus IL-18 (10 ng/ml each) 24 h) and 2.5 fold in data set [2] (IL-18 (10 ng/ml) 24 h). Also, the “percentage of intracellular IFN-γ+ cells” value in data set [2] (IL-15 (10 ng/ml) 24 h, n=5 donors) is reported as 11.5%. Moreover, the “intracellular IFN-γ level relative to Scr siRNA” value in data set [2] (IL-15-activated) is reported as 2.5 fold. Also, in data set [3], the “transcriptional level of granzyme B (RNA-seq)” value is on record as “increased”. In addition, the “concentration of granzyme B protein in supernatants” value in data set [4] (with IL-15 (10 ng/ml) 24 h, n=8 donors) amounted to 8789 pg/mL; in data set [4] (without IL-15, n=8 donors), 688.1 pg/mL.

Values taken from patent US20240299542A1, “NATURAL KILLER CELLS ENGINEERED TO REDUCE OR ELIMINATE CBL-B AND USES THEREOF” (City of Hope, priority 2021, published 2024).
